Data published in US20250230193A1, “CYCLIC COMPOUND HAVING SELECTIVE KRAS INHIBITORY EFFECT ON HRAS AND NRAS” (CHUGAI SEIYAKU KABUSHIKI KAISHA, priority 2022, published 2025).
Where a SMILES comes first, the peptide text is derived from it. Bridges are numbered along the chain shown (N, C = ends). [ ]: non-standard residue; d: D form. The star is where a group is joined. hPhe(3-Cl-4-CF3) = N[C@@H](CCc1ccc(C(F)(F)F)c(Cl)c1)C(=O)O; NPrPhe(4-CF3) = CCCN[C@@H](Cc1ccc(C(F)(F)F)cc1)C(=O)O; Pro(4-spirocPr) = O=C(O)[C@@H]1CC2(CC2)CN1; Abu(4,4,4-F3) = N[C@@H](CC(F)(F)F)C(=O)O; Morpholine(3S-CO) = O=C(O)[C@@H]1COCCN1; Pip(4,4-F2) = O=C(O)[C@@H]1CC(F)(F)CCN1; NMeGly(cPent) = CN[C@H](C(=O)O)C1CCCC1; Gly(cPent) = N[C@H](C(=O)O)C1CCCC1; Gly(cBu) = N[C@H](C(=O)O)C1CCC1; NMeD = CN[C@@H](CC(=O)O)C(=O)O; NMeL = CN[C@@H](CC(C)C)C(=O)O; hPip = O=C(O)[C@@H]1CCCCCN1; Pip = O=C(O)[C@@H]1CCCCN1; Morpholide = C1CN(*)CCO1; NMeA = CN[C@@H](C)C(=O)O; Ac5c = NC1(C(=O)O)CCCC1; Aze = O=C(O)[C@@H]1CCN1; Abu = CC[C@H](N)C(=O)O; NPrGly = CCCNCC(=O)O; NEtG = CCNCC(=O)O; Sar = CNCC(=O)O

What was measured:
[1] = molecular target: GDP-bound NRAS wild-type protein (Homo sapiens, UniProt P01111); test: Binding to NRAS by surface plasmon resonance (SPR), Single Cycle Kinetics; conditions: KD ratio NRAS/KRAS, SPR
[2] = molecular target: GDP-bound HRAS wild-type protein (Homo sapiens, UniProt P01112); test: Binding to HRAS by surface plasmon resonance (SPR), Single Cycle Kinetics; conditions: KD ratio HRAS/KRAS, SPR
Chain of GDP-bound HRAS wild-type protein (P01112 whole entry): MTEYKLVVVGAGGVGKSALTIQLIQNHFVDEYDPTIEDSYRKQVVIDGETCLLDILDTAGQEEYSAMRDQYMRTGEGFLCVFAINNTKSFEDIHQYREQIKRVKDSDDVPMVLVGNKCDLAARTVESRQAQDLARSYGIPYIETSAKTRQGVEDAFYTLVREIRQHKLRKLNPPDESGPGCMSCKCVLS

Chain of GDP-bound NRAS wild-type protein (P01111 whole entry): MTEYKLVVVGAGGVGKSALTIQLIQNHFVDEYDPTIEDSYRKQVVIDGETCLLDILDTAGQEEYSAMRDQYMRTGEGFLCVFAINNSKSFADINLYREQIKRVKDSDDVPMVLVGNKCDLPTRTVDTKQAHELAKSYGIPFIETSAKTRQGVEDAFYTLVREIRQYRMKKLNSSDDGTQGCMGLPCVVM

SMILES | NRAS/KRAS (ratio of KD for GDP-bound NRAS wild-type to KD for KRAS) [1] | HRAS/KRAS (ratio of KD for GDP-bound HRAS wild-type to KD for KRAS) [2]
CCCN1C(=O)[C@@H]2CCN2C(=O)[C@H](C)N(C)C(=O)[C@H]([C@@H](C)CC)NC(=O)[C@H](CC(C)C)N(C)C(=O)C[C@@H](C(=O)N2CCOCC2)N(C)C(=O)[C@H](C2CCCC2)N(C)C(=O)C2(CCCC2)NC(=O)[C@@H]2CCCCN2C(=O)[C@H](CCc2ccc(C(F)(F)F)c(Cl)c2)NC(=O)CN(C)C(=O)[C@@H]1Cc1ccc(C(F)(F)F)cc1 [PP0284] ([NMeL]I[NMeA][Aze][NPrPhe(4-CF3)][Sar][hPhe(3-Cl-4-CF3)][Pip][Ac5c][NMeGly(cPent)][NMeD]-Morpholide; lactam N-11) | C (A compound having a KD ratio of 0.1 or more and less than 3 is denoted as C) | B (a compound having 3 or more and less than 10 is denoted as B)
CCCN1C(=O)[C@@H]2CCN2C(=O)[C@H](C)N(C)C(=O)[C@H]([C@@H](C)CC)NC(=O)[C@H](CC(C)C)N(C)C(=O)C[C@@H](C(=O)N2CCOCC2)N(C)C(=O)[C@H](C2CCCC2)N(C)C(=O)C2(CCCC2)NC(=O)[C@@H]2CC(F)(F)CCN2C(=O)[C@H](CCc2ccc(C(F)(F)F)c(Cl)c2)NC(=O)CN(C)C(=O)[C@@H]1Cc1ccc(C(F)(F)F)cc1 [PP0285] ([NMeL]I[NMeA][Aze][NPrPhe(4-CF3)][Sar][hPhe(3-Cl-4-CF3)][Pip(4,4-F2)][Ac5c][NMeGly(cPent)][NMeD]-Morpholide; lactam N-11) | C (A compound having a KD ratio of 0.1 or more and less than 3 is denoted as C) | B (a compound having 3 or more and less than 10 is denoted as B)
CCCN1C(=O)[C@@H]2CCN2C(=O)[C@H](C)N(C)C(=O)[C@H]([C@@H](C)CC)NC(=O)[C@H](CC(C)C)N(C)C(=O)C[C@@H](C(=O)N2CCOCC2)N(C)C(=O)[C@H](C2CCCC2)N(C)C(=O)C2(CCCC2)NC(=O)[C@@H]2COCCN2C(=O)[C@H](CCc2ccc(C(F)(F)F)c(Cl)c2)NC(=O)CN(C)C(=O)[C@@H]1Cc1ccc(C(F)(F)F)cc1 [PP0286] ([NMeL]I[NMeA][Aze][NPrPhe(4-CF3)][Sar][hPhe(3-Cl-4-CF3)][Morpholine(3S-CO)][Ac5c][NMeGly(cPent)][NMeD]-Morpholide; lactam N-11) | C (A compound having a KD ratio of 0.1 or more and less than 3 is denoted as C) | B (a compound having 3 or more and less than 10 is denoted as B)
CCCN1C(=O)[C@@H]2CCN2C(=O)[C@H](C)N(C)C(=O)[C@H]([C@@H](C)CC)NC(=O)[C@H](CC(C)C)N(C)C(=O)C[C@@H](C(=O)N2CCOCC2)N(C)C(=O)[C@H](C2CCCC2)N(C)C(=O)C2(CCCC2)NC(=O)CN(C)C(=O)[C@H](CCc2ccc(C(F)(F)F)c(Cl)c2)NC(=O)CN(C)C(=O)[C@@H]1Cc1ccc(C(F)(F)F)cc1 [PP0287] ([NMeL]I[NMeA][Aze][NPrPhe(4-CF3)][Sar][hPhe(3-Cl-4-CF3)][Sar][Ac5c][NMeGly(cPent)][NMeD]-Morpholide; lactam N-11) | C (A compound having a KD ratio of 0.1 or more and less than 3 is denoted as C) | C (A compound having a KD ratio of 0.1 or more and less than 3 is denoted as C)
CCCN1CC(=O)NC2(CCCC2)C(=O)N(C)[C@@H](C2CCCC2)C(=O)N(C)[C@H](C(=O)N2CCOCC2)CC(=O)N(C)[C@@H](CC(C)C)C(=O)N[C@@H]([C@@H](C)CC)C(=O)N(C)[C@@H](C)C(=O)N2CC[C@H]2C(=O)N(CCC)[C@@H](Cc2ccc(C(F)(F)F)cc2)C(=O)N(C)CC(=O)N[C@@H](CCc2ccc(C(F)(F)F)c(Cl)c2)C1=O [PP0288] ([NMeL]I[NMeA][Aze][NPrPhe(4-CF3)][Sar][hPhe(3-Cl-4-CF3)][NPrGly][Ac5c][NMeGly(cPent)][NMeD]-Morpholide; lactam N-11) | C (A compound having a KD ratio of 0.1 or more and less than 3 is denoted as C) | B (a compound having 3 or more and less than 10 is denoted as B)
CCCN1C(=O)CN(C)C(=O)CN(CC)C(=O)[C@H]([C@@H](C)CC)NC(=O)[C@@H]2CCCCCN2C(=O)C[C@@H](C(=O)N2CCOCC2)N(C)C(=O)[C@H](C2CCCC2)N(C)C(=O)C2(CCCC2)NC(=O)[C@@H]2CCCN2C(=O)[C@H](CCc2ccc(C(F)(F)F)c(Cl)c2)NC(=O)CN(C)C(=O)[C@@H]1Cc1ccc(C(F)(F)F)cc1 [PP0289] ([hPip]I[NEtG][Sar][NPrPhe(4-CF3)][Sar][hPhe(3-Cl-4-CF3)]P[Ac5c][NMeGly(cPent)][NMeD]-Morpholide; lactam N-11) | B (a compound having 3 or more and less than 10 is denoted as B) | B (a compound having 3 or more and less than 10 is denoted as B)
CCCN1C(=O)CN(C)C(=O)CN(CC)C(=O)[C@H](CC)NC(=O)[C@H](CC(C)C)N(C)C(=O)C[C@@H](C(=O)N2CCOCC2)N(C)C(=O)[C@H](C2CCCC2)N(C)C(=O)C2(CCCC2)NC(=O)[C@@H]2CCCN2C(=O)[C@H](CCc2ccc(C(F)(F)F)c(Cl)c2)NC(=O)CN(C)C(=O)[C@@H]1Cc1ccc(C(F)(F)F)cc1 [PP0290] ([NMeL][Abu][NEtG][Sar][NPrPhe(4-CF3)][Sar][hPhe(3-Cl-4-CF3)]P[Ac5c][NMeGly(cPent)][NMeD]-Morpholide; lactam N-11) | B (a compound having 3 or more and less than 10 is denoted as B) | C (A compound having a KD ratio of 0.1 or more and less than 3 is denoted as C)
CCCN1C(=O)CN(C)C(=O)CN(CC)C(=O)[C@H](CC(F)(F)F)NC(=O)[C@H](CC(C)C)N(C)C(=O)C[C@@H](C(=O)N2CCOCC2)N(C)C(=O)[C@H](C2CCCC2)N(C)C(=O)C2(CCCC2)NC(=O)[C@@H]2CCCN2C(=O)[C@H](CCc2ccc(C(F)(F)F)c(Cl)c2)NC(=O)CN(C)C(=O)[C@@H]1Cc1ccc(C(F)(F)F)cc1 [PP0291] ([NMeL][Abu(4,4,4-F3)][NEtG][Sar][NPrPhe(4-CF3)][Sar][hPhe(3-Cl-4-CF3)]P[Ac5c][NMeGly(cPent)][NMeD]-Morpholide; lactam N-11) | B (a compound having 3 or more and less than 10 is denoted as B) | B (a compound having 3 or more and less than 10 is denoted as B)
CCCN1C(=O)CN(C)C(=O)CN(CC)C(=O)[C@H](C2CCC2)NC(=O)[C@H](CC(C)C)N(C)C(=O)C[C@@H](C(=O)N2CCOCC2)N(C)C(=O)[C@H](C2CCCC2)N(C)C(=O)C2(CCCC2)NC(=O)[C@@H]2CCCN2C(=O)[C@H](CCc2ccc(C(F)(F)F)c(Cl)c2)NC(=O)CN(C)C(=O)[C@@H]1Cc1ccc(C(F)(F)F)cc1 [PP0292] ([NMeL][Gly(cBu)][NEtG][Sar][NPrPhe(4-CF3)][Sar][hPhe(3-Cl-4-CF3)]P[Ac5c][NMeGly(cPent)][NMeD]-Morpholide; lactam N-11) | B (a compound having 3 or more and less than 10 is denoted as B) | C (A compound having a KD ratio of 0.1 or more and less than 3 is denoted as C)
CCCN1C(=O)CN(C)C(=O)CN(CC)C(=O)[C@H](C2CCCC2)NC(=O)[C@H](CC(C)C)N(C)C(=O)C[C@@H](C(=O)N2CCOCC2)N(C)C(=O)[C@H](C2CCCC2)N(C)C(=O)C2(CCCC2)NC(=O)[C@@H]2CCCN2C(=O)[C@H](CCc2ccc(C(F)(F)F)c(Cl)c2)NC(=O)CN(C)C(=O)[C@@H]1Cc1ccc(C(F)(F)F)cc1 [PP0293] ([NMeL][Gly(cPent)][NEtG][Sar][NPrPhe(4-CF3)][Sar][hPhe(3-Cl-4-CF3)]P[Ac5c][NMeGly(cPent)][NMeD]-Morpholide; lactam N-11) | B (a compound having 3 or more and less than 10 is denoted as B) | C (A compound having a KD ratio of 0.1 or more and less than 3 is denoted as C)
CCCN1C(=O)CN(C)C(=O)CN(CC)C(=O)[C@H]([C@@H](C)CC)NC(=O)[C@H](CC(C)C)N(C)C(=O)C[C@@H](C(=O)N2CCOCC2)N(C)C(=O)[C@H](C2CCCC2)N(C)C(=O)C2(CCCC2)NC(=O)[C@@H]2CCN2C(=O)[C@H](CCc2ccc(C(F)(F)F)c(Cl)c2)NC(=O)CN(C)C(=O)[C@@H]1Cc1ccc(C(F)(F)F)cc1 [PP0294] ([NMeL]I[NEtG][Sar][NPrPhe(4-CF3)][Sar][hPhe(3-Cl-4-CF3)][Aze][Ac5c][NMeGly(cPent)][NMeD]-Morpholide; lactam N-11) | B (a compound having 3 or more and less than 10 is denoted as B) | C (A compound having a KD ratio of 0.1 or more and less than 3 is denoted as C)
CCCN1C(=O)CN(C)C(=O)CN(CC)C(=O)[C@H]([C@@H](C)CC)NC(=O)[C@H](CC(C)C)N(C)C(=O)C[C@@H](C(=O)N2CCOCC2)N(C)C(=O)[C@H](C2CCCC2)N(C)C(=O)C2(CCCC2)NC(=O)[C@@H]2CC3(CC3)CN2C(=O)[C@H](CCc2ccc(C(F)(F)F)c(Cl)c2)NC(=O)CN(C)C(=O)[C@@H]1Cc1ccc(C(F)(F)F)cc1 [PP0295] ([NMeL]I[NEtG][Sar][NPrPhe(4-CF3)][Sar][hPhe(3-Cl-4-CF3)][Pro(4-spirocPr)][Ac5c][NMeGly(cPent)][NMeD]-Morpholide; lactam N-11) | B (a compound having 3 or more and less than 10 is denoted as B) | C (A compound having a KD ratio of 0.1 or more and less than 3 is denoted as C)
